According to patent US10160771B2, “Hepatitis C virus inhibitors and uses thereof in preparation of drugs” (priority 2014, dated 2018):
pEC50: −log10 of the molar value.

Experiments:
[1] = tested on: HCV genotype 1b (HCV-1b) replicon cells; assay: HCV genotype 1b replicon luciferase assay (EC50); assay type: cell-based, hepatitis C virus genotype 1b (Con1 clone); conditions: 3 days, luciferase (Bright-Glo)
Procedure: (§1) The EC50 and CC50 values of anti-HCV compounds were determined by HCV genotype 1a (HCV-1a) and 1B (HCV-1b) stable transfer replication (replicon) cells. The source of genotype 1a replicon is H77 clones containing K1691R, K2040R and S2204I adaptive mutations. The source of genotype 1b replicon is Con1 clones containing E1202G, T1280I and K1846T adaptive mutations.
(§2) HCV 1a (HCV-1a) and 1b (HCV-1b) gene subtype replicon system contains the related HCV gene subtype non structural protein gene, G418 resistance gene NEO and luciferase gene, which results in that HCV related protein and luciferase can be stably expressed in cells. By detecting the level of expression of luciferase gene, the level of HCV replication can be determined. Therefore, the system is used as a model for screening the activity of anti-HCV compound in vitro.
(§3) HCV Replicon Cell Lines: HCV-1a and HCV-1b Cells
(§4) The compound powder was dissolved in 100% DMSO. Then the compound was diluted 5 times with 6 points, and added into the cell plate with Echo liquid handler. Ensure the final concentration of DMSO was 0.5%. Each compound was tested in double holes. Maximum initial concentration was 100, 10 or 1 nM, 5 times dilution, 6 points.
(§5) b) Cell Culture (HCV-1a or HCV-1b Replicon Cell):
(§6) 1) absorbing the culture supernatant of the cell culture and washing the cells with 10 mL PBS.
(§7) 2) adding preheated pancreatin to the washed cell culture flasks, rotating culture bottle to make the bottom of the culture bottle uniformly covered by pancreatin, then placed into 37° C., 5% CO2 incubator to digest.
(§8) 3) suspending cells in each T150 culture flask with 10-15 mL culture medium, absorbing 0.1 mL liquid and diluting 2 times by trypan blue solution as counted.
(§9) 4) diluting cells to 8×10^4/mL with the culture medium, adding the diluted cells into the compound-containing 96-well plate (Greiner, Cat.#655090) (100 μL/well, 8000 cells/well) with automatic liquid separator (Thermo Scientific). Then place into a 37° C., 5% CO2 incubator for 3 days. Cell control well: no compound, only containing 0.5% DMSO.
(§10) 6) then adding luciferase luminescence substrate Bright-Glo, after incubation for 5 minutes, detecting the luciferase activity by chemical luminescence detection system Envison (wavelength>700 nm); analyzing the anti-HCV inhibitory activity of the compounds according to luciferase data, which was used to calculate EC50 values.
(§11) The EC50 or CC50 values were obtained by nonlinear fitting analysis on inhibition percentage (inh %) data with GraphPad Prism software.

[2] = Cell Titer-fluor cell activity assay in HCV-1b replicon cells (CC50); assay type: cell-based
Procedure: as §1, §3, §4, §5, §6, §7, §8, §9
5) adding chemiluminescent substrate Cell Titer-fluor to the cell well, after incubation for 30 minutes, detecting the signal by chemiluminescence detection system Envison (Ex at 405 nm and read at 515 nm). The effect of the compounds on the activity of HCV replicon cells was analyzed according to the luminescence data, which was used to calculate the CC50 values.
as §11

[3] = tested on: HCV genotype 1a (HCV-1a) replicon cells; assay: HCV genotype 1a replicon luciferase assay (EC50); assay type: cell-based, hepatitis C virus genotype 1a (H77 clone); conditions: 3 days, luciferase (Bright-Glo)
Procedure: as §1, §2, §3, §4, §5, §6, §7, §8, §9, §10, §11

Compound | pEC50 ([1]; Hepatitis C virus, 72 h) | CC50 at 3 days [2] [nM] | pEC50 ([3]; Hepatitis C virus, 72 h) | pEC50 [3] | pEC50 [1]
COC(=O)N[C@H](C(=O)N1CCC[C@H]1c1ncc(-c2ccc(-c3ccc(-c4cnc(C5=C(C(=O)N(NC(=O)OC)C(C)C)CCC5)[nH]4)cc3)cc2)[nH]1)C(C)C [AA_007] | 8.00 to 9.00 | > 100 |  |  | 
COC(=O)N[C@H](C(=O)N1CCC[C@H]1c1[nH]c(-c2ccc(-c3ccc4cc(-c5cnc(C6CCCC[C@@H]6C(=O)N(NC(=O)OC)C(C)C)[nH]5)ccc4c3)cc2)c2c1CCC2)C(C)C (some centres unmarked) [AA_094] | 7.00 to 8.00 | > 10 |  |  | 
COC(=O)N[C@H](C(=O)N1CCC[C@H]1c1ncc(-c2ccc(-c3ccc(-c4cnc(C5CCC[C@H]5C(=O)NC(C)C)[nH]4)cc3)cc2)[nH]1)C(C)C (some centres unmarked) [AA_028] | 8.00 to 9.00 | > 100 |  |  | 
COC(=O)N[C@H](C(=O)N1CCC[C@H]1c1ncc(-c2ccc(-c3ccc(-c4cnc([C@@H]5[C@H]6CC[C@H](C6)[C@H]5C(=O)N[C@@H](C)c5cccnc5F)[nH]4)cc3)cc2)[nH]1)C(C)C [AA_283_ENDOA2_B] | 10.00 to 12.00 |  | 10.00 to 12.00 |  | 
COC(=O)N[C@H](C(=O)N1CCC[C@H]1c1ncc(-c2ccc(-c3ccc(-c4cnc([C@@H]5[C@H]6CC[C@H](C6)[C@H]5C(=O)NCc5ccc(F)nc5)[nH]4)cc3)cc2)[nH]1)C(C)C [AA_214_ENDOA2] | 10.00 to 12.00 |  | 8.00 to 9.00 |  | 
COC(=O)N[C@H](C(=O)N1CCC[C@H]1c1ccc(-c2ccc(-c3ccc(-c4cnc([C@@H]5CCCN5C(=O)C5(NC(=O)OC)CC5)[nH]4)cc3)cc2)[nH]1)C(C)C [AG_097] |  |  |  | 7.00 to 8.00 | 10.00 to 12.00
COC(=O)N[C@H](C(=O)N1CCC[C@H]1c1ncc(-c2ccc(-c3ccc(-c4cnc([C@@H]5[C@H]6CC[C@H](C6)[C@H]5C(=O)NN5CC[C@@H](C)C5=O)[nH]4)cc3)cc2)[nH]1)C(C)C [AA_295_ENDOA2_A] | 9.00 to 10.00 |  | 7.00 to 8.00 |  | 
COC(=O)N[C@H](C(=O)N1CCC[C@H]1c1ncc(-c2ccc(-c3ccc(-c4cnc([C@@H]5[C@H]6CC[C@H](C6)[C@H]5C(N)=O)[nH]4)cc3)cc2)[nH]1)C(C)C [AA_284_ENDOA2] | 10.00 to 12.00 |  | 7.00 to 8.00 |  | 
COC(=O)N[C@H](C(=O)N1CCC[C@H]1c1ncc(-c2ccc(-c3ccc(-c4cnc([C@@H]5[C@H]6CC[C@H](C6)[C@H]5C(=O)N[C@H](C)c5cccnc5F)[nH]4)cc3)cc2)[nH]1)C(C)C [AA_283_ENDOA2_A] | 10.00 to 12.00 |  | 8.00 to 9.00 |  | 
COC(=O)N[C@H](C(=O)N1CCC[C@H]1c1cc(Cl)c(-c2ccc(-c3ccc(-c4cnc([C@@H]5CCCN5C(=O)[C@@H](NC(=O)OC)[C@@H](C)OC)[nH]4)cc3)cc2)[nH]1)[C@@H](C)OC [AG_095] | 10.00 to 12.00 |  | 9.00 to 10.00 |  | 
COC(=O)N[C@H](C(=O)N1CCC[C@H]1c1ccc(-c2ccc(-c3ccc(-c4cnc([C@@H]5CCCN5C(=O)[C@@H](NC(=O)OC)[C@@H](C)O)[nH]4)cc3)cc2)[nH]1)C(C)C [AG_099] | 9.00 to 10.00 |  | 8.00 to 9.00 |  | 
COC(=O)N[C@H](C(=O)N1CCC[C@H]1c1ncc(-c2ccc(-c3ccc(-c4cnc([C@@H]5[C@H]6CC[C@H](C6)[C@H]5C(=O)N[C@@H](C(=O)c5ccccc5)C(C)C)[nH]4)cc3)cc2)[nH]1)C(C)C [AA_293_ENDOA2] | 10.00 to 12.00 |  | 8.00 to 9.00 |  | 
COC(=O)N[C@H](C(=O)N1CCC[C@H]1c1ncc(-c2ccc(-c3ccc(-c4cnc([C@@H]5C6CCC(C6)[C@H]5C(=O)NCC(=O)NCC(F)F)[nH]4)cc3)cc2)[nH]1)C(C)C (some centres unmarked) [AA_277] | 10.00 to 12.00 |  | 9.00 to 10.00 |  | 
COC(=O)N[C@H](C(=O)N1CCC[C@H]1c1ncc(-c2ccc(-c3ccc(-c4cnc([C@@H]5[C@H]6CC[C@H](C6)[C@H]5C(=O)NCc5nccn5C)[nH]4)cc3)cc2)[nH]1)C(C)C [AA_288_ENDOA2] | 10.00 to 12.00 |  | 8.00 to 9.00 |  | 
COC(=O)CNC(=O)[C@H](NC(=O)[C@@H]1[C@@H]2CC[C@@H](C2)[C@H]1c1ncc(-c2ccc(-c3ccc(-c4cnc([C@@H]5CCCN5C(=O)[C@@H](NC(=O)OC)C(C)C)[nH]4)cc3)cc2)[nH]1)C(C)C [AA_290_ENDOA2] | 9.00 to 10.00 |  | 7.00 to 8.00 |  | 
COC(=O)N[C@H](C(=O)N1CCC[C@H]1c1ncc(-c2ccc(-c3ccc(-c4cnc([C@@H]5[C@H]6CC[C@H](C6)[C@H]5C(=O)N[C@@H](C)c5nccs5)[nH]4)cc3)cc2)[nH]1)C(C)C [AA_279_ENDOA2_A] | 10.00 to 12.00 |  | 9.00 to 10.00 |  | 
COC(=O)N[C@H](C(=O)N1CCC[C@H]1c1ncc(-c2ccc(-c3ccc(-c4cnc([C@@H]5[C@H]6CC[C@H](C6)[C@H]5C(=O)NCc5ncc(C)[nH]5)[nH]4)cc3)cc2)[nH]1)C(C)C [AA_291_ENDOA2] | 10.00 to 12.00 |  | 8.00 to 9.00 |  | 
COC(=O)NN(C(=O)C1=C(c2ncc(-c3ccc(-c4ccc(-c5cnc(C6=C(C(=O)N(NC(=O)OC)C(C)C)CCC6)[nH]5)cc4)cc3)[nH]2)CCC1)C(C)C [AA_033] | 7.00 to 8.00 |  | 7.00 to 8.00 |  | 
COC(=O)N[C@H](C(=O)N1CCC[C@H]1c1ncc(-c2ccc(-c3ccc(-c4cnc([C@@H]5[C@H]6CC[C@H](C6)[C@H]5C(=O)N(Cc5cccnc5)C(C)C)[nH]4)cc3)cc2)[nH]1)C(C)C [AA_285_ENDOA2] | 10.00 to 12.00 |  | 8.00 to 9.00 |  | 
COC(=O)N[C@H](C(=O)N1CCC[C@H]1c1ncc(-c2ccc(-c3ccc(-c4cnc([C@@H]5[C@H]6CC[C@H](C6)[C@H]5C(=O)NN5CCCC5=O)[nH]4)cc3)cc2)[nH]1)C(C)C [AA_294_ENDOA2] | 10.00 to 12.00 |  | 7.00 to 8.00 |  | 
COC(=O)N[C@H](C(=O)N1CCC[C@H]1c1ncc(-c2ccc(-c3ccc(-c4cnc([C@@H]5[C@H]6CC[C@H](C6)[C@H]5C(=O)NN5CC[C@H](C)C5=O)[nH]4)cc3)cc2)[nH]1)C(C)C [AA_295_ENDOA2_B] | 9.00 to 10.00 |  | 7.00 to 8.00 |  | 
CCOC(=O)[C@@H](NC(=O)[C@@H]1[C@@H]2CC[C@@H](C2)[C@H]1c1ncc(-c2ccc(-c3ccc(-c4cnc([C@@H]5CCCN5C(=O)[C@@H](NC(=O)OC)C(C)C)[nH]4)cc3)cc2)[nH]1)C(C)C [AA_297_ENDOA2] | 9.00 to 10.00 |  | 7.00 to 8.00 |  | 
COC(=O)CNC(=O)C1(NC(=O)[C@@H]2C3CCC(C3)[C@H]2c2ncc(-c3ccc(-c4ccc(-c5cnc([C@@H]6CCCN6C(=O)[C@@H](NC(=O)OC)C(C)C)[nH]5)cc4)cc3)[nH]2)CCCCC1 (some centres unmarked) [AA_278] | 9.00 to 10.00 |  | 7.00 to 8.00 |  | 
COC(=O)N[C@H](C(=O)N1CCC[C@H]1c1ncc(-c2ccc(-c3ccc(-c4cnc([C@@H]5[C@H]6CC[C@H](C6)[C@H]5C(=O)N[C@H](C(=O)NCc5cccnc5)C(C)C)[nH]4)cc3)cc2)[nH]1)C(C)C [AA_296_ENDOA2] | 9.00 to 10.00 |  | 8.00 to 9.00 |  | 
COC(=O)N[C@H](C(=O)N1CCC[C@H]1c1ncc(-c2ccc(-c3ccc(-c4cnc([C@@H]5[C@H]6CC[C@H](C6)[C@H]5C(=O)NCc5cncc(F)c5)[nH]4)cc3)cc2)[nH]1)C(C)C [AA_287_ENDOA2] | 10.00 to 12.00 |  | 9.00 to 10.00 |  | 
COC(=O)N[C@H](C(=O)N1CCC[C@H]1c1ncc(-c2ccc(-c3ccc(-c4ccc(C5CCCC5C(=O)NCc5cccnc5)[nH]4)cc3)cc2)[nH]1)[C@@H](C)OC (some centres unmarked) [AG_096] | 10.00 to 12.00 |  | 7.00 to 8.00 |  | 
COC(=O)N[C@H](C(=O)N[C@H]1C2CCC(C2)C1c1ncc(-c2ccc(-c3ccc(-c4cnc([C@@H]5CCCN5C(=O)[C@@H](NC(=O)OC)C(C)C)[nH]4)cc3)cc2)[nH]1)C(C)C (some centres unmarked) [AA_286] | 10.00 to 12.00 |  | 7.00 to 8.00 |  | 
COC(=O)N[C@H](C(=O)N1CCC[C@H]1c1ncc(-c2ccc(-c3ccc(-c4cnc([C@@H]5C6CCC(C6)[C@H]5C(=O)N[C@@H](C(=O)NCC(F)F)C(C)C)[nH]4)cc3)cc2)[nH]1)C(C)C (some centres unmarked) [AA_276] | 8.00 to 9.00 |  | 7.00 to 8.00 |  | 
